Laboratory results reported in ChEMBL document CHEMBL3525983, “Pharmacokinetics, metabolism, and disposition of rivoglitazone, a novel peroxisome proliferator-activated receptor γ agonist, in rats and monkeys” (Drug Metab Dispos, 2011).

What was measured:
[1] = Tmax in monkey at 0.986 mg/kg, po administered via gavage by LC-MS/MS analysis; assay type: ADME, organism-based, Macaca mulatta; parameters: dose 0.986 mg/kg, dosed compound name [14C]Rivoglitazone, route oral; conditions: rhesus monkey, in vivo
[2] = Terminal elimination half life in monkey at 0.986 mg/kg, po administered via gavage by LC-MS/MS analysis; assay type: ADME, organism-based, Macaca mulatta; parameters: dose 0.986 mg/kg, dosed compound name [14C]Rivoglitazone, route oral; conditions: rhesus monkey, in vivo, read-out: beta t1/2 (converted)
[3] = Terminal elimination half life in monkey at 0.493 mg/kg, po administered via gavage by LC-MS/MS analysis; assay type: ADME, organism-based, Macaca mulatta; parameters: dose 0.493 mg/kg, dosed compound name [14C]Rivoglitazone, route oral; conditions: rhesus monkey, in vivo, read-out: beta t1/2 (converted)
[4] = Volume of distribution at steady state in monkey at 0.986 mg/kg, iv administered via tail vein by LC-MS/MS analysis; assay type: ADME, organism-based, Macaca mulatta; parameters: dose 0.986 mg/kg, dosed compound name [14C]Rivoglitazone, route intravenous; conditions: rhesus monkey, in vivo, read-out: Vdss
[5] = Total clearance in monkey at 0.986 mg/kg, iv administered via tail vein by LC-MS/MS analysis; assay type: ADME, organism-based, Macaca mulatta; parameters: dose 0.986 mg/kg, dosed compound name [14C]Rivoglitazone, route intravenous; conditions: rhesus monkey, in vivo
[6] = Oral bioavailability in monkey at 0.986 mg/kg administered via gavage by LC-MS/MS analysis; assay type: ADME, organism-based, Macaca mulatta; parameters: dosed compound name [14C]Rivoglitazone; conditions: rhesus monkey, in vivo
[7] = AUC (0 to t) in F344/DuCrlCrlj rat at 0.1 mg/kg, po administered via gavage by LC-MS/MS analysis; assay type: ADME, organism-based; parameters: dose 0.1 mg/kg, dosed compound name [14C]Rivoglitazone, route oral; conditions: plasma
[8] = AUC (0 to infinity) in monkey at 0.0986 mg/kg, po administered via gavage by LC-MS/MS analysis; assay type: ADME, organism-based, Macaca mulatta; parameters: time infinity, dose 0.0986 mg/kg, dosed compound name [14C]Rivoglitazone, route oral; conditions: rhesus monkey, plasma
[9] = Oral bioavailability in monkey at 0.0986 mg/kg administered via gavage by LC-MS/MS analysis; assay type: ADME, organism-based, Macaca mulatta; parameters: dosed compound name [14C]Rivoglitazone; conditions: rhesus monkey, in vivo
[10] = AUC (0 to t) in monkey at 0.493 mg/kg, po administered via gavage by LC-MS/MS analysis; assay type: ADME, organism-based, Macaca mulatta; parameters: dose 0.493 mg/kg, dosed compound name [14C]Rivoglitazone, route oral; conditions: rhesus monkey, plasma
[11] = Apparent total clearance in F344/DuCrlCrlj rat at 1 mg/kg, po administered via gavage by LC-MS/MS analysis; assay type: ADME, organism-based; parameters: dose 1 mg/kg, dosed compound name [14C]Rivoglitazone, route oral; conditions: in vivo, read-out: CLt/F
[12] = Terminal elimination half life in monkey at 0.0986 mg/kg, iv administered via tail vein by LC-MS/MS analysis; assay type: ADME, organism-based, Macaca mulatta; parameters: dose 0.0986 mg/kg, dosed compound name [14C]Rivoglitazone, route intravenous; conditions: rhesus monkey, in vivo, read-out: beta t1/2 (converted)
[13] = Volume of distribution at steady state in monkey at 0.0986 mg/kg, iv administered via tail vein by LC-MS/MS analysis; assay type: ADME, organism-based, Macaca mulatta; parameters: dose 0.0986 mg/kg, dosed compound name [14C]Rivoglitazone, route intravenous; conditions: rhesus monkey, in vivo, read-out: Vdss
[14] = Cmax in F344/DuCrlCrlj rat at 0.1 mg/kg, po administered via gavage by LC-MS/MS analysis; assay type: ADME, organism-based; parameters: dose 0.1 mg/kg, dosed compound name [14C]Rivoglitazone, route oral; conditions: in vivo
[15] = Oral bioavailability in F344/DuCrlCrlj rat at 0.1 mg/kg administered via gavage by LC-MS/MS analysis; assay type: ADME, organism-based; parameters: dosed compound name [14C]Rivoglitazone; conditions: in vivo
[16] = AUC (0 to infinity) in monkey at 0.493 mg/kg, po administered via gavage by LC-MS/MS analysis; assay type: ADME, organism-based, Macaca mulatta; parameters: time infinity, dose 0.493 mg/kg, dosed compound name [14C]Rivoglitazone, route oral; conditions: rhesus monkey, plasma
[17] = AUC (0 to t) in monkey at 0.0986 mg/kg, po administered via gavage by LC-MS/MS analysis; assay type: ADME, organism-based, Macaca mulatta; parameters: dose 0.0986 mg/kg, dosed compound name [14C]Rivoglitazone, route oral; conditions: rhesus monkey, plasma
Rattus norvegicus = test: Drug uptake in F344/DuCrlCrlj rat plasma assessed as unchanged compound at 1 to 5 mg/kg, po administered as single dose via gavage by LC-MS/MS analysis; assay type: ADME, organism-based; parameters: dose 1-5 mg/kg, dosed compound name [14C]Rivoglitazone, route oral; conditions: in vivo
[18] = AUC (0 to t) in F344/DuCrlCrlj rat at 1 mg/kg, po administered via gavage by LC-MS/MS analysis; assay type: ADME, organism-based; parameters: dose 1 mg/kg, dosed compound name [14C]Rivoglitazone, route oral; conditions: plasma
[19] = Cmax in monkey at 0.0986 mg/kg, po administered via gavage by LC-MS/MS analysis; assay type: ADME, organism-based, Macaca mulatta; parameters: dose 0.0986 mg/kg, dosed compound name [14C]Rivoglitazone, route oral; conditions: rhesus monkey, in vivo
[20] = Tmax in monkey at 0.0986 mg/kg, po administered via gavage by LC-MS/MS analysis; assay type: ADME, organism-based, Macaca mulatta; parameters: dose 0.0986 mg/kg, dosed compound name [14C]Rivoglitazone, route oral; conditions: rhesus monkey, in vivo
[21] = AUC (0 to t) in monkey at 0.0986 mg/kg, iv administered via tail vein by LC-MS/MS analysis; assay type: ADME, organism-based, Macaca mulatta; parameters: dose 0.0986 mg/kg, dosed compound name [14C]Rivoglitazone, route intravenous; conditions: rhesus monkey, plasma
[22] = AUC (0 to infinity) in monkey at 0.986 mg/kg, iv administered via tail vein by LC-MS/MS analysis; assay type: ADME, organism-based, Macaca mulatta; parameters: time infinity, dose 0.986 mg/kg, dosed compound name [14C]Rivoglitazone, route intravenous; conditions: rhesus monkey, plasma
[23] = Apparent total clearance in monkey at 0.986 mg/kg, po administered via gavage by LC-MS/MS analysis; assay type: ADME, organism-based, Macaca mulatta; parameters: dose 0.986 mg/kg, dosed compound name [14C]Rivoglitazone, route oral; conditions: rhesus monkey, in vivo, read-out: CLt/F
[24] = AUC (0 to infinity) in monkey at 0.986 mg/kg, po administered via gavage by LC-MS/MS analysis; assay type: ADME, organism-based, Macaca mulatta; parameters: time infinity, dose 0.986 mg/kg, dosed compound name [14C]Rivoglitazone, route oral; conditions: rhesus monkey, plasma
Plasma = test: Drug metabolism in F344/DuCrlCrlj rat plasma assessed as 2-((4-((2,4-dioxothiazolidin-5-yl)methyl)phenoxy)methyl)-1-methyl-1H-benzo[d]imidazol-6-yl hydrogen sulfate formation at 1 to 5 mg/kg, po administered as single dose via gavage by LC-MS/MS analysis; assay type: ADME, organism-based; parameters: dose 1-5 mg/kg, dosed compound name [14C]Rivoglitazone, route oral; conditions: in vivo
[25] = Cmax in monkey at 0.986 mg/kg, po administered via gavage by LC-MS/MS analysis; assay type: ADME, organism-based, Macaca mulatta; parameters: dose 0.986 mg/kg, dosed compound name [14C]Rivoglitazone, route oral; conditions: rhesus monkey, in vivo
[26] = AUC (0 to t) in F344/DuCrlCrlj rat at 0.5 mg/kg, iv administered via tail vein by LC-MS/MS analysis; assay type: ADME, organism-based; parameters: dose 0.5 mg/kg, dosed compound name [14C]Rivoglitazone, route intravenous; conditions: plasma
[27] = Apparent total clearance in F344/DuCrlCrlj rat at 0.5 mg/kg, po administered via gavage by LC-MS/MS analysis; assay type: ADME, organism-based; parameters: dose 0.5 mg/kg, dosed compound name [14C]Rivoglitazone, route oral; conditions: in vivo, read-out: CLt/F
[28] = Terminal elimination half life in monkey at 0.986 mg/kg, iv administered via tail vein by LC-MS/MS analysis; assay type: ADME, organism-based, Macaca mulatta; parameters: dose 0.986 mg/kg, dosed compound name [14C]Rivoglitazone, route intravenous; conditions: rhesus monkey, in vivo, read-out: beta t1/2 (converted)
[29] = Drug excretion in F344/DuCrlCrlj rat urine/feces assessed as unchanged compound at 1 mg/kg, po administered via gavage measured during 0 to 48 hrs by radio-HPLC analysis; assay type: ADME, organism-based; parameters: dose 1 mg/kg, dosed compound name [14C]Rivoglitazone, route oral; conditions: urine and feces, read-out: Compound recovery
[30] = Apparent total clearance in monkey at 0.0986 mg/kg, po administered via gavage by LC-MS/MS analysis; assay type: ADME, organism-based, Macaca mulatta; parameters: dose 0.0986 mg/kg, dosed compound name [14C]Rivoglitazone, route oral; conditions: rhesus monkey, in vivo, read-out: CLt/F
[31] = Tmax in monkey at 0.493 mg/kg, po administered via gavage by LC-MS/MS analysis; assay type: ADME, organism-based, Macaca mulatta; parameters: dose 0.493 mg/kg, dosed compound name [14C]Rivoglitazone, route oral; conditions: rhesus monkey, in vivo
[32] = Terminal elimination half life in monkey at 0.493 mg/kg, iv administered via tail vein by LC-MS/MS analysis; assay type: ADME, organism-based, Macaca mulatta; parameters: dose 0.493 mg/kg, dosed compound name [14C]Rivoglitazone, route intravenous; conditions: rhesus monkey, in vivo, read-out: beta t1/2 (converted)
[33] = AUC (0 to t) in monkey at 0.986 mg/kg, iv administered via tail vein by LC-MS/MS analysis; assay type: ADME, organism-based, Macaca mulatta; parameters: dose 0.986 mg/kg, dosed compound name [14C]Rivoglitazone, route intravenous; conditions: rhesus monkey, plasma

COc1ccc2nc(COc3ccc(CC4SC(=O)NC4=O)cc3)n(C)c2c1.Cl (racemic)
Tmax [1]: 3.5 h | half-life [2]: 7.34 h | half-life [3]: 7.56 h | Vd [4]: 0.138 L/kg | clearance [5]: 0.31 mL/min/kg | bioavailability [6]: 76.1% | AUC(0-t) [7]: 4340 ng·h/mL | AUC(0-inf) [8]: 4470 ng·h/mL | bioavailability [9]: 106% | AUC(0-t) [10]: 17200 ng·h/mL | CL/F [11]: 0.304 mL/min/kg | half-life [12]: 6.38 h | Vd [13]: 0.166 L/kg | Cmax [14]: 409 ng/mL | bioavailability [15]: 98.1% | AUC(0-inf) [16]: 17700 ng·h/mL | AUC(0-t) [17]: 3440 ng·h/mL | Compound recovery (Rattus norvegicus): metabolite_detected | AUC(0-t) [18]: 48500 ng·h/mL | Cmax [19]: 242 ng/mL | Tmax [20]: 3 h | AUC(0-t) [21]: 3800 ng·h/mL | AUC(0-inf) [22]: 57200 ng·h/mL | CL/F [23]: 0.41 mL/min/kg | AUC(0-inf) [24]: 43100 ng·h/mL | Compound recovery (Plasma): metabolite_detected | Cmax [25]: 2930 ng/mL | AUC(0-t) [26]: 22300 ng·h/mL | CL/F [27]: 0.352 mL/min/kg | half-life [28]: 6.79 h | dose excreted [29]: 23.7% | CL/F [30]: 0.432 mL/min/kg | Tmax [31]: 4.25 h | half-life [32]: 6.21 h | AUC(0-t) [33]: 51700 ng·h/mL
